Literature values, collected in paper PMC4512239 (Clinical cancer research : an official journal of the …, 2015).

Details: allosteric m-TOR inhibitors; cited from earlier work

half-life, ≥ 24 h:
CO[C@H]1C[C@@H]2CC[C@@H](C)[C@@](O)(O2)C(=O)C(=O)N2CCCC[C@H]2C(=O)O[C@H]([C@H](C)C[C@@H]2CC[C@@H](OC(=O)C(C)(CO)CO)[C@H](OC)C2)CC(=O)[C@H](C)/C=C(\C)[C@@H](O)[C@@H](OC)C(=O)[C@H](C)C[C@H](C)/C=C/C=C/C=C/1C [temsirolimus]
CO[C@H]1C[C@@H]2CC[C@@H](C)[C@@](O)(O2)C(=O)C(=O)N2CCCC[C@H]2C(=O)O[C@H]([C@H](C)C[C@@H]2CC[C@@H](OP(C)(C)=O)[C@H](OC)C2)CC(=O)[C@H](C)/C=C(\C)[C@@H](O)[C@@H](OC)C(=O)[C@H](C)C[C@H](C)/C=C/C=C/C=C/1C [ridaforolimus]
CO[C@H]1C[C@@H]2CC[C@@H](C)[C@@](O)(O2)C(=O)C(=O)N2CCCC[C@H]2C(=O)O[C@H]([C@H](C)C[C@@H]2CC[C@@H](OCCO)[C@H](OC)C2)CC(=O)[C@H](C)/C=C(\C)[C@@H](O)[C@@H](OC)C(=O)[C@H](C)C[C@H](C)/C=C/C=C/C=C/1C [everolimus]
